BigSolDB 2.1

CC[C@H]1OC(=O)[C@H](C)[C@@H](O[C@H]2C[C@@](C)(OC)[C@@H](O)[C@H](C)O2)[C@H](C)[C@@H](O[C@@H]2O[C@H](C)C[C@H](N(C)C)[C@H]2O)[C@](C)(O)C[C@@H](C)CN(C)[C@H](C)[C@@H](O)[C@]1(C)O.O
solubility (mole fraction)
Details | 278.15 K | 283.15 K | 288.15 K | 293.15 K | 298.15 K | 303.15 K | 308.15 K | 313.15 K | 318.15 K | 323.15 K
in acetone | 0.0305 | 0.0329 | 0.0353 | 0.0386 | 0.0424 | 0.0464 | 0.0512 | 0.0569 | 0.063 | 0.0721
in ethanol | 0.0299 | 0.0325 | 0.0348 | 0.0371 | 0.0406 | 0.0451 | 0.0491 | 0.0538 | 0.0573 | 0.0588
in ethyl acetate | 0.0324 | 0.0341 | 0.0366 | 0.0396 | 0.0436 | 0.0521 | 0.0593 | 0.0671 | 0.0743 | 0.081
in isopropanol | 0.0281 | 0.0303 | 0.0327 | 0.0349 | 0.0388 | 0.0433 | 0.0459 | 0.0507 | 0.0542 | 0.0575
in n-butanol | 0.0249 | 0.0254 | 0.0274 | 0.0282 | 0.0301 | 0.0324 | 0.0356 | 0.0386 | 0.0422 | 0.0466
